Data reported in the supplement of paper PMC10307832.

Legend:
Test in all cases: relative viability (nuclei count vs DMSO), 5 days (fraction); higher = more cells survive
HCC-44 = tested on: HCC-44
Method in brief: (§1)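 Dosing by pin tool came one day after lung cancer cell lines were seeded in 1536-well plates, using either one drug or a fixed anchor-drug dose plus five library-drug doses (not always all listed) in √10 steps. After 5 days, nuclei were counted on 4× images. Relative viability is treated-well nuclei count divided by vehicle-well nuclei count, and values are medians of duplicate plates.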

NCI-H358 = tested on: NCI-H358
Method in brief: as §1

EPLC-272H = tested on: EPLC-272H
Method in brief: as §1

ABC-1 = tested on: ABC-1
Method in brief: as §1

COR-L 105 = tested on: COR-L 105
Method in brief: as §1

NCI-H647 = tested on: NCI-H647
Method in brief: as §1

COR-L23 = tested on: COR-L23
Method in brief: as §1

NCI-H520 = tested on: NCI-H520
Method in brief: as §1

NCI-H1975 = tested on: NCI-H1975
Method in brief: as §1

201T = tested on: 201T
Method in brief: as §1

NCI-H727 = tested on: NCI-H727
Method in brief: as §1

HCC-15 = tested on: HCC-15
Method in brief: as §1

HCC-827 = tested on: HCC-827
Method in brief: as §1

EKVX = tested on: EKVX
Method in brief: as §1

H3255 = tested on: H3255
Method in brief: as §1

LCLC-103H = tested on: LCLC-103H
Method in brief: as §1

UMC-11 = tested on: UMC-11
Method in brief: as §1

NCI-H1792 = tested on: NCI-H1792
Method in brief: as §1

NCI-H1650 = tested on: NCI-H1650
Method in brief: as §1

NCI-H2087 = tested on: NCI-H2087
Method in brief: as §1

NCI-H661 = tested on: NCI-H661
Method in brief: as §1

NCI-H1437 = tested on: NCI-H1437
Method in brief: as §1

NCI-H1651 = tested on: NCI-H1651
Method in brief: as §1

With O=c1[nH]c2ccccc2n1C1CCN(CCCC(c2ccc(F)cc2)c2ccc(F)cc2)CC1 [Pimozide] + N=C(N)NC(=N)NCCc1ccccc1 [Phenformin] (partner 250 µM) the relative viability (HCC-44; first compound 0.08 µM) was 0.253, the relative viability (HCC-44; first compound 0.253 µM) was 0.206 and the relative viability (HCC-44; first compound 0.8 µM) was 0.138. The relative viability (HCC-44; first compound 2.53 µM) was 0.142, the relative viability (HCC-44; first compound 8 µM) was 0.278 and the relative viability (NCI-H358; first compound 0.08 µM) was 0.295. The relative viability (NCI-H358; first compound 0.253 µM) was 0.37, the relative viability (NCI-H358; first compound 0.8 µM) was 0.366 and the relative viability (NCI-H358; first compound 2.53 µM) was 0.313. For the same compound, the relative viability (NCI-H358; first compound 8 µM) was 0.327, the relative viability (EPLC-272H; first compound 0.08 µM) was 0.29 and the relative viability (EPLC-272H; first compound 0.253 µM) was 0.306. The relative viability (EPLC-272H; first compound 0.8 µM) was 0.342, the relative viability (EPLC-272H; first compound 2.53 µM) was 0.0767 and the relative viability (EPLC-272H; first compound 8 µM) was 0.253. For the same compound, the relative viability (ABC-1; first compound 0.08 µM) was 0.265, the relative viability (ABC-1; first compound 0.253 µM) was 0.258 and the relative viability (ABC-1; first compound 0.8 µM) was 0.227. For the same compound, the relative viability (ABC-1; first compound 2.53 µM) was 0.287, the relative viability (ABC-1; first compound 8 µM) was 0.209 and the relative viability (COR-L 105; first compound 0.253 µM) was 0.519. The relative viability (COR-L 105; first compound 0.8 µM) was 0.512, the relative viability (COR-L 105; first compound 2.53 µM) was 0.471 and the relative viability (COR-L 105; first compound 8 µM) was 0.473. For the same compound, the relative viability (NCI-H647; first compound 0.08 µM) was 0.59, the relative viability (NCI-H647; first compound 0.253 µM) was 0.497 and the relative viability (NCI-H647; first compound 0.8 µM) was 0.435. The relative viability (NCI-H647; first compound 2.53 µM) was 0.452, the relative viability (NCI-H647; first compound 8 µM) was 0.527 and the relative viability (COR-L23; first compound 0.08 µM) was 0.455. For the same compound, the relative viability (COR-L23; first compound 0.253 µM) was 0.479, the relative viability (COR-L23; first compound 0.8 µM) was 0.407 and the relative viability (COR-L23; first compound 2.53 µM) was 0.456. The relative viability (COR-L23; first compound 8 µM) was 0.49, the relative viability (NCI-H520; first compound 0.08 µM) was 0.724 and the relative viability (NCI-H520; first compound 0.253 µM) was 0.615. It also gave a relative viability (NCI-H520; first compound 0.8 µM) of 0.613, a relative viability (NCI-H520; first compound 2.53 µM) of 0.623 and a relative viability (NCI-H520; first compound 8 µM) of 0.678. It also gave a relative viability (NCI-H1975; first compound 0.08 µM) of 0.427, a relative viability (NCI-H1975; first compound 0.253 µM) of 0.395 and a relative viability (NCI-H1975; first compound 0.8 µM) of 0.414. The relative viability (NCI-H1975; first compound 2.53 µM) was 0.454, the relative viability (NCI-H1975; first compound 8 µM) was 0.391 and the relative viability (201T; first compound 0.08 µM) was 0.467. It also gave a relative viability (201T; first compound 0.253 µM) of 0.404, a relative viability (201T; first compound 0.8 µM) of 0.444 and a relative viability (201T; first compound 2.53 µM) of 0.379. For the same compound, the relative viability (201T; first compound 8 µM) was 0.44, the relative viability (NCI-H727; first compound 0.08 µM) was 0.467 and the relative viability (NCI-H727; first compound 0.253 µM) was 0.641. It also gave a relative viability (NCI-H727; first compound 0.8 µM) of 0.448, a relative viability (NCI-H727; first compound 2.53 µM) of 0.684 and a relative viability (NCI-H727; first compound 8 µM) of 0.577. For the same compound, the relative viability (HCC-15; first compound 0.08 µM) was 0.511, the relative viability (HCC-15; first compound 0.253 µM) was 0.431 and the relative viability (HCC-15; first compound 0.8 µM) was 0.432. It also gave a relative viability (HCC-15; first compound 2.53 µM) of 0.433, a relative viability (HCC-15; first compound 8 µM) of 0.448 and a relative viability (HCC-827; first compound 0.253 µM) of 0.403. The relative viability (HCC-827; first compound 0.8 µM) was 0.464, the relative viability (HCC-827; first compound 2.53 µM) was 0.443 and the relative viability (HCC-827; first compound 8 µM) was 0.42. It also gave a relative viability (EKVX; first compound 0.08 µM) of 0.192, a relative viability (EKVX; first compound 0.253 µM) of 0.235 and a relative viability (EKVX; first compound 0.8 µM) of 0.201. For the same compound, the relative viability (EKVX; first compound 2.53 µM) was 0.235, the relative viability (EKVX; first compound 8 µM) was 0.226 and the relative viability (H3255; first compound 0.253 µM) was 0.37. For the same compound, the relative viability (H3255; first compound 0.8 µM) was 0.387, the relative viability (H3255; first compound 2.53 µM) was 0.372 and the relative viability (H3255; first compound 8 µM) was 0.4. For the same compound, the relative viability (LCLC-103H; first compound 0.08 µM) was 0.327, the relative viability (LCLC-103H; first compound 0.253 µM) was 0.324 and the relative viability (LCLC-103H; first compound 0.8 µM) was 0.317. The relative viability (LCLC-103H; first compound 2.53 µM) was 0.332, the relative viability (LCLC-103H; first compound 8 µM) was 0.364 and the relative viability (UMC-11; first compound 0.08 µM) was 0.331. The relative viability (UMC-11; first compound 0.253 µM) was 0.333, the relative viability (UMC-11; first compound 0.8 µM) was 0.344 and the relative viability (UMC-11; first compound 2.53 µM) was 0.313. For the same compound, the relative viability (UMC-11; first compound 8 µM) was 0.245, the relative viability (NCI-H1792; first compound 0.08 µM) was 0.356 and the relative viability (NCI-H1792; first compound 0.253 µM) was 0.314. For the same compound, the relative viability (NCI-H1792; first compound 2.53 µM) was 0.233, the relative viability (NCI-H1792; first compound 8 µM) was 0.278 and the relative viability (NCI-H1650; first compound 0.08 µM) was 0.378. For the same compound, the relative viability (NCI-H1650; first compound 0.253 µM) was 0.45, the relative viability (NCI-H1650; first compound 0.8 µM) was 0.495 and the relative viability (NCI-H1650; first compound 2.53 µM) was 0.418. The relative viability (NCI-H1650; first compound 8 µM) was 0.306, the relative viability (NCI-H2087; first compound 0.08 µM) was 0.5 and the relative viability (NCI-H2087; first compound 0.253 µM) was 0.47. It also gave a relative viability (NCI-H2087; first compound 2.53 µM) of 0.464, a relative viability (NCI-H2087; first compound 8 µM) of 0.393 and a relative viability (NCI-H661; first compound 0.08 µM) of 0.256. For the same compound, the relative viability (NCI-H661; first compound 0.253 µM) was 0.287, the relative viability (NCI-H661; first compound 0.8 µM) was 0.257 and the relative viability (NCI-H661; first compound 2.53 µM) was 0.263. It also gave a relative viability (NCI-H661; first compound 8 µM) of 0.257, a relative viability (NCI-H1437; first compound 0.08 µM) of 0.395 and a relative viability (NCI-H1437; first compound 0.253 µM) of 0.318. For the same compound, the relative viability (NCI-H1437; first compound 0.8 µM) was 0.327, the relative viability (NCI-H1437; first compound 2.53 µM) was 0.275 and the relative viability (NCI-H1437; first compound 8 µM) was 0.25. The relative viability (NCI-H1651; first compound 0.08 µM) was 0.346, the relative viability (NCI-H1651; first compound 0.253 µM) was 0.305 and the relative viability (NCI-H1651; first compound 0.8 µM) was 0.316. It also gave a relative viability (NCI-H1651; first compound 2.53 µM) of 0.338 and a relative viability (NCI-H1651; first compound 8 µM) of 0.283.
